Results as given in PMC3491656 (Journal of medicinal chemistry, 2012).
“Also recorded” adds a separate entry of the source. Values belong to the compound of their own block, whether it stands above or below them.

Assays:
[1] = target: TrkB (Rattus norvegicus, UniProt Q63604); test: TrkB activation in primary cortical cultures; assay type: cell-based; settings: 500 nM, 15 min; for TrkB activation (agonistic activity): primary cortical cultures from E17 rat embryos, p-TrkB immunoblotting (Figure 2B); for TrkB and Akt activation in primary neurons: rat primary neurons, immunoblotting and p-Akt ELISA (Figure 4B)
[2] = Preliminary in vivo metabolism study; settings: Supplemental Figure 2
[3] = In vivo pharmacokinetic studies in mice
[4] = target: T1, TrkB (Mus musculus, UniProt P15209); test: TrkB activation in mouse brain after single oral administration; assay type: in vivo, C57 BL/6J mice; settings: 1 mg/kg oral; for TrkB activation in mouse brain: hippocampus
[5] = test system: p-Akt and p-MAPK; test: Downstream p-Akt and p-MAPK signaling in mouse brain; assay type: in vivo, C57 BL/6J mice; settings: hippocampus; for downstream p-Akt and p-MAPK signalings: 1 mg/kg oral, 4 h; for downstream p-Akt activity: 2.5 mg/kg oral, 3 weeks
[6] = test system: male C57BL/6J mice; test: Forced swim test; assay type: in vivo; settings: for immobility in forced swim test: 5 mg/kg oral once a day for 21 days
[7] = test system: male C57BL/6J mice; test: Tail suspension test; assay type: in vivo; settings: 2.5 mg/kg oral once a day for 3 weeks
[8] = test system: male C57BL/6J mice; test: Locomotor activity assay; assay type: in vivo
[9] = target: T1, TrkB; test: TrkB activation in mouse brain after chronic oral treatment; assay type: in vivo, C57 BL/6J mice; settings: for TrkB activation in brain tissues (anti-p-TrkB Y816 and Y706 immunoblotting) / TrkB phosphorylation in hippocampus (immunohistochemistry, anti-p-TrkB 816): 2.5 mg/kg oral; for TrkB activation in brain tissues (anti-p-TrkB Y816 and Y706 immunoblotting) / TrkB phosphorylation in cortex and hippocampus: 3 weeks; for TrkB activation in brain tissues (anti-p-TrkB Y816 and Y706 immunoblotting): after behavioral tests; for TrkB phosphorylation in hippocampus (immunohistochemistry, anti-p-TrkB 816): chronic, brain sections; for TrkB phosphorylation in cortex and hippocampus: 5 mg/kg oral, vs vehicle
[10] = Reactive metabolite screening; assay type: in vitro ADME; settings: reactive metabolic screening
[11] = Human plasma protein binding; assay type: in vitro ADME; settings: 5 μM
[12] = target: hERG (Homo sapiens, UniProt Q12809); test: hERG inhibition assay; assay type: in vitro ADME
[13] = test system: P-Akt S473; test: P-Akt S473 ELISA in drug-treated mouse brain; assay type: in vivo, C57 BL/6J mice; settings: 1 mg/kg oral, time course
[14] = target: TrkA receptor (Mus musculus, UniProt Q3UFB7); test: TrkA activation in mouse brain after chronic oral treatment; assay type: in vivo, mice; settings: 5 mg/kg oral, anti-p-TrkA 794
[15] = test system: HepG2 cells; test: Comet assay; assay type: cell-based, human; settings: 100 μM, 24 h
[16] = 2.5 mg/kg oral once a day for 3 weeks
[17] = 5 mg/kg oral for 21 days, tested at day 22

Chain of TrkB (Rattus norvegicus, UniProt Q63604) (Q63604 32-821): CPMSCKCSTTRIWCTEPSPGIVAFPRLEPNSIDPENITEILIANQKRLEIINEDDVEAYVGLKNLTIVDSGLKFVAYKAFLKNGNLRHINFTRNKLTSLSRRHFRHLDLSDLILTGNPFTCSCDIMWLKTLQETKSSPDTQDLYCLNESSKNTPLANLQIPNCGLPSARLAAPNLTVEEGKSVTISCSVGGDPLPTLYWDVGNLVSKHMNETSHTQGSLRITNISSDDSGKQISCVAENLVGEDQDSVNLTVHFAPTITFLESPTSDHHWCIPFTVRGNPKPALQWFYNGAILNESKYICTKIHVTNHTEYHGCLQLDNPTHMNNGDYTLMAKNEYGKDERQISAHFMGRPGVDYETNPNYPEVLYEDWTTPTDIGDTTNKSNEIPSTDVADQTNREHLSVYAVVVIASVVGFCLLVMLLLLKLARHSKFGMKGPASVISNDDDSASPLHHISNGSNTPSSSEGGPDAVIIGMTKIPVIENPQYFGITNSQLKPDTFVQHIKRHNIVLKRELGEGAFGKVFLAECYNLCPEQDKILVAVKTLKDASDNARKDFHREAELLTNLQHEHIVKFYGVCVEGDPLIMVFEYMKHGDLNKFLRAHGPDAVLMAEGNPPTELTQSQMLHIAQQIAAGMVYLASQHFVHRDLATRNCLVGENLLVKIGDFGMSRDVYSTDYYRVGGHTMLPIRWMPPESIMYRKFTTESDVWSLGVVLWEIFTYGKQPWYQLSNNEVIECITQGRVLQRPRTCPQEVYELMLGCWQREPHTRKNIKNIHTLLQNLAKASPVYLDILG
T1 sequence (P15209 32-821): as the sequence (Q63604 32-821) above, with M3T, T9S, T10A, I32V, K63R, G84S, T153M, I185L, T394S, N770S counted along it
Chain of TrkA receptor (Q3UFB7 34-799): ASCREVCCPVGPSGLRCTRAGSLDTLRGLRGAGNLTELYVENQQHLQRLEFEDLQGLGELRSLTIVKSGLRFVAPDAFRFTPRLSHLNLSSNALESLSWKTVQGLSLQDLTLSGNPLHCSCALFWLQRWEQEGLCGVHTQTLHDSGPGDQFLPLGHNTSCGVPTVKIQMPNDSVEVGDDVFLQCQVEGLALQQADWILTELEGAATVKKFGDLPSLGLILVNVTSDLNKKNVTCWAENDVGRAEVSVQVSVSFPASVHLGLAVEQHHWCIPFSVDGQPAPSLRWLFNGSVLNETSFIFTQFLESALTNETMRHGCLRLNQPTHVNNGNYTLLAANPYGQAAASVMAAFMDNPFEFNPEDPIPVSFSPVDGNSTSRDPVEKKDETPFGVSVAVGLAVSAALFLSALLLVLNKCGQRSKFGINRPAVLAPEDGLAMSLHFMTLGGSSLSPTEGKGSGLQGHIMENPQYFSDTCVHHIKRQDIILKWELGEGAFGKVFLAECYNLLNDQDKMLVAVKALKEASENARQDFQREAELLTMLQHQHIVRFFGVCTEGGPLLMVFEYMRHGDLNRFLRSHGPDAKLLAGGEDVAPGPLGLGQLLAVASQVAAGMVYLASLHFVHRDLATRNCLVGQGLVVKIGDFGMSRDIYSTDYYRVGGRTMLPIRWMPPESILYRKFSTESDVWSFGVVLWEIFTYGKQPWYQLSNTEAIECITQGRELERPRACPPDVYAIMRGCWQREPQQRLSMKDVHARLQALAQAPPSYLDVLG
Chain of hERG (Q12809 whole entry): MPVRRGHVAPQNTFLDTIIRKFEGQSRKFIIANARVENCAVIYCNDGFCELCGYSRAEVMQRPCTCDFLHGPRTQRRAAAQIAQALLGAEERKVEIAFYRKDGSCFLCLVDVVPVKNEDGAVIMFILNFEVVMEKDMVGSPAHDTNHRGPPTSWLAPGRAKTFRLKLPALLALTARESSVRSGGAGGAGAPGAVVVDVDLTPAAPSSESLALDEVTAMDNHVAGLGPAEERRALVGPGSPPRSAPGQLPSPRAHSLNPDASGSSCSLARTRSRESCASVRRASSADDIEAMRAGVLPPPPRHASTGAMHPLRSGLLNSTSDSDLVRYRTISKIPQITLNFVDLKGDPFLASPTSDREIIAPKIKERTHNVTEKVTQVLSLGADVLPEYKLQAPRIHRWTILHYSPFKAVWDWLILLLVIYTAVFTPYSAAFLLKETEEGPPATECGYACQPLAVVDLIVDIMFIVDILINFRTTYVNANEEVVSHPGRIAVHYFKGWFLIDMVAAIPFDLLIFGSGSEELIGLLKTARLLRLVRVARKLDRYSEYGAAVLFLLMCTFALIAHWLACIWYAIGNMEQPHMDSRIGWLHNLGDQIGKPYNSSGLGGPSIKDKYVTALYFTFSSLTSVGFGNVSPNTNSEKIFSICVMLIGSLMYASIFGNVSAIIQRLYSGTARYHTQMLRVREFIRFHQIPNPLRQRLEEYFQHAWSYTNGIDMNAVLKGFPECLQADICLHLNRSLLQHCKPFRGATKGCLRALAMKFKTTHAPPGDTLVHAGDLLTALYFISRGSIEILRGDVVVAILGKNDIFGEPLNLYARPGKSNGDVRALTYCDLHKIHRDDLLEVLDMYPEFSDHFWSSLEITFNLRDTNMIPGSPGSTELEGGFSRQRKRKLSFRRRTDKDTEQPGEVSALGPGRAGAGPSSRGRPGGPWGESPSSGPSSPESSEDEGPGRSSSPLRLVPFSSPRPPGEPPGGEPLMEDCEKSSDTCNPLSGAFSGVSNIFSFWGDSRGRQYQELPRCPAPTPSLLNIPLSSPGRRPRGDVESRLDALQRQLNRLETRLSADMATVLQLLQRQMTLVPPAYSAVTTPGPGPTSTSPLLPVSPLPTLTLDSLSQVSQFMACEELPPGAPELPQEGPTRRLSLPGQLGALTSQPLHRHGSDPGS

SMILES: CN(C)c1cccc(-c2cc(=O)c3ccc(O)c(O)c3o2)c1 [compound 28, 3′-dimethylamino-7,8-DHF]
TrkB activation (agonistic activity) [1]: comparable activity as the lead compound 24

SMILES: O=c1c(F)c(-c2ccccc2)oc2c(O)c(O)ccc12 [compound 34]
TrkB activation (agonistic activity) [1]: did not significantly affect 7,8-DHF’s TrkB agonistic activity

SMILES: O=c1cc(-c2ccccc2)oc2c(O)c(O)cc(F)c12 [compound 33]
TrkB activation (agonistic activity) [1]: did not significantly affect 7,8-DHF’s TrkB agonistic activity

SMILES: CN(C)c1ccc(-c2cc(=O)c3c(F)cc(O)c(O)c3o2)cc1 [compound 35]
TrkB activation (agonistic activity) [1]: did not significantly affect 7,8-DHF’s TrkB agonistic activity

SMILES: O=c1cc(-c2ccccc2)oc2c(O)c(O)ccc12 [7,8-DHF, 7,8-dihydroxyflavone]
in vivo metabolic pathways [2]: subjected to oxidation, glucuronidation, sulfation and methylation

SMILES: O=c1cc(-c2ccc(F)cc2)[nH]c2c(O)c(O)ccc12 [compound 25]
TrkB activation (agonistic activity) [1]: diminished agonistic activity

SMILES: O=c1cc(-c2ccc(N3CCOCC3)cc2)oc2c(O)c(O)ccc12 [compound 29, 4′-morpholino-7,8-DHF]
TrkB activation (agonistic activity) [1]: comparable activity as the lead compound 24

Now from value to compound, other results behind:

TrkB activation (agonistic activity) [1]: inhibited its activity
SMILES: O=c1cc(-c2ccc(F)cc2)oc2c(O)c(O)ccc12 [compound 30]

TrkB activation (agonistic activity) [1]: diminished agonistic activity
SMILES: O=c1cc(-c2ccccc2)[nH]c2c(O)c(O)ccc12 [compound 26]

Bioavailability ([3]; PO, 5 mg/kg): not measurable
AUC(0-t) ([3]; mouse, plasma, iv, 1 mg/kg, AUClast): ~98.8 ng·h/mL
half-life ([3]; mouse, plasma, iv, 1 mg/kg, T1/2, IV): ~9 min
SMILES: CN(C)c1ccc(-c2cc(=O)c3ccc(O)c(O)c3o2)cc1 [compound 24, 4′-dimethylamino-7,8-dihydroxyflavone]
TrkB activation in mouse brain ([4]; 4 h): clearly activated the TrkB receptor; also recorded: strongest TrkB stimulatory effect
downstream p-Akt and p-MAPK signalings [5]: activated

TrkB activation in brain tissues (anti-p-TrkB Y816 and Y706 immunoblotting) [9]: markedly activated TrkB
adduct formation (Comment) [10]: formed numerous adducts
Binding classification [11]: High Binding
SMILES: O=c1cc(-c2ccc(N3CCCC3)cc2)oc2c1ccc1cc[nH]c12 [compound 23, 2-(4-(Pyrrolidin-1-yl)phenyl)pyrano[3,2-g]indol-4(9H)-one]
TrkB and Akt activation in primary neurons [1]: higher activity than compound 11 in triggering TrkB and Akt activation
reduction of immobility in FST compared to vehicle control ([6]; 2.5 mg/kg oral gavage once a day for 3 weeks): had no effect
immobility in tail suspension test [7]: lacked efficacy
locomotor activity [8, 16]: neither compound 13 nor 23 altered the motion activity
TrkB phosphorylation in hippocampus (immunohistochemistry, anti-p-TrkB 816) [9]: elevated TrkB phosphorylation in hippocampus
downstream p-Akt activity [5]: upregulated

ACINF ([3]; PO, 10 mg/kg): 1293 ng·min/mL
TrkB activation in mouse brain ([4]; 2 h): triggers TrkB activation in mouse brain
TrkB activation in brain tissues (anti-p-TrkB Y816 and Y706 immunoblotting) [9]: markedly activated TrkB
Binding classification [11]: High Binding
SMILES: Cc1nc2ccc3c(=O)cc(-c4ccc(N5CCCC5)cc4)oc3c2[nH]1 [compound 13, 2-methyl-8-(4-(pyrrolidin-1-yl)phenyl)chromeno[7,8-d]imidazol-6(1H)-one]
TrkB and Akt activation in primary neurons [1]: higher activity than compound 11 in triggering TrkB and Akt activation
immobility in tail suspension test [7]: significantly reducing the immobility
locomotor activity [8, 16]: neither compound 13 nor 23 altered the motion activity
TrkB phosphorylation in hippocampus (immunohistochemistry, anti-p-TrkB 816) [9]: elevated TrkB phosphorylation in hippocampus
adduct formation (Comment) [10]: quite stable in vitro; also recorded: No adduct detected
hERG inhibition [12]: did not possess any concentration-dependent inhibition activity of hERG; also recorded: trifling
downstream p-Akt activity [5]: upregulated

time of peak TrkB activation in mouse brain ([4]; time course): 1 to 2 h
TrkB phosphorylation in cortex and hippocampus [9]: clearly escalated TrkB phosphorylation
TrkA activation in mouse brain [14]: TrkB but not TrkA is activated
SMILES: O=c1c(F)c(-c2cccc(O)c2)oc2c(O)c(O)ccc12 [compound 32]
TrkB activation (agonistic activity) [1]: did not significantly affect 7,8-DHF’s TrkB agonistic activity; also recorded: barely affects TrkB stimulatory activity
TrkB activation in mouse brain (time course comparison) ([4]; various time points): less effect on TrkB activation than compound 11
time at which p-Akt returned to the baseline [13]: 8 h
time of peak p-Akt activation (ELISA) ([13]; 20 μg brain lysates): 1 h
immobility in forced swim test [6]: significantly reduced the immobility
locomotor activity [8, 17]: but not 32 significantly increased the locomotor activity

time at which TrkB activation faded away ([4]; time course): 16 h
time of peak TrkB activation in mouse brain ([4]; time course): 4 h
TrkB phosphorylation in cortex and hippocampus [9]: clearly escalated TrkB phosphorylation
TrkA activation in mouse brain [14]: TrkB but not TrkA is activated
DNA lesions (Comet assay) [15]: induced DNA lesions
SMILES: CN(C)c1ccc(-c2cc(=O)c3ccc4nc[nH]c4c3o2)cc1 [compound 11, 8-(4′-(Dimethylamino)phenyl)chromeno[7,8-d]imidazol-6(1H)-one]
TrkB activation (agonistic activity) [1]: stronger effect in triggering TrkB activation than the lead compound
TrkB activation in mouse brain ([4]; 4 h): robustly activated TrkB; also recorded: strongest TrkB stimulatory effect
immobility in forced swim test [6]: significantly reduced the immobility
locomotor activity [8, 17]: substantially augmented locomoter activity; also recorded: significantly increased the locomotor activity
downstream p-Akt and p-MAPK signalings [5]: activated
